In publication PMC11758220, “Identification of a Privileged Scaffold for Inhibition of Sterol Transport Proteins through the Synthesis and Ring Distortion of Diverse, Pseudo-Natural Products” (ACS Central Science, 2025):

Columns and labels:
OSBP = target: T1, OSBP (Homo sapiens, UniProt P22059); assay: Fluorescence polarisation (FP) competition with NBD-cholesterol, OSBP; type: binding; details: single dose; for OSBP (FP) inhibition: Dose = 10 µM
T1 construct: OSBP(377-807); host or cells: E. coli OverExpress C41
T1 sequence (P22059 377-807): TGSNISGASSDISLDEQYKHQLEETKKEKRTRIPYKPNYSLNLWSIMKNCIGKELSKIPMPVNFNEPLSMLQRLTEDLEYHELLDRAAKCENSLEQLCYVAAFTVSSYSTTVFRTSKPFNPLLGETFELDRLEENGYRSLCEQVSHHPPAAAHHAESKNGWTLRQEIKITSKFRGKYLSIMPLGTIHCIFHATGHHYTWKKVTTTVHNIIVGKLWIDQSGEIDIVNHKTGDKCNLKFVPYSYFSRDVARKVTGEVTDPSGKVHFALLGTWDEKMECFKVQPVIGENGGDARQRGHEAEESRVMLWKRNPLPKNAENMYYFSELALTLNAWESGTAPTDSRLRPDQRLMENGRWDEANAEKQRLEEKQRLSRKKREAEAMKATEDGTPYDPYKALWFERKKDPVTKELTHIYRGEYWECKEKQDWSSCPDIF
Description: Protein expression constructs
Human ASTER domains of Aster-A(359-547), -B(364-552) and -C(318-504) were subcloned into a pGEX-6p-2rbs vector, thus introducing the cloning artifact ‘GPLGS’.3 The pGEX-6P-1-GST-OSBP(377- […]
a gift from James H. Hurley (University of California).4 The pHIS_2His6_Thrombin_STARD4(2-205;C75S) plasmid was a gift from Young Jun Im (Chonnam National University).5 STARD5A was a gift from Nicola Burgess-Brown (Addgene plasmid #42392; http://n2t.net/addgene:42392; […]
Protein expression and purification […]
vectors including an N-terminal PreScission-cleavable glutathione S-transferase (GST)-tag were expressed in Escherichia coli (E. coli) OverExpress C41 in Terrific Broth (TB) medium for 16 h at 18 °C after the induction with 0.1 mM isopropyl β-D-1-thiogalactopyranoside (IPTG). Cells were harvested at 3500 × g for 15 minutes and lysed by sonication in buffer containing 50 mM HEPES pH 7.5, 300 mM NaCl, 10 %v/v glycerol, 5 mM dithiothreitol (DTT), 0.1 %v/v Triton X-100 and protease inhibitor mix HP plus (Serva). The lysate was purified by affinity chromatography on a GSTrap FF column (Cytiva) using an ÄKTA Start (Cytiva) in buffer containing 50 mM HEPES pH 7.5, 300 mM NaCl, 10 %v/v glycerol, 5 mM DTT and 0.01 %v/v Triton X-100. The GST-tag was cleaved overnight on the column at 4 °C. The Aster sterol binding domains were further purified by size-exclusion chromatography (SEC) on a HiLoad 16/600 Superdex 75 pg (Cytiva) in buffer containing 20 mM HEPES pH 7.5, 300 mM NaCl, 10 %v/v […]
STARD5(6-213) harboring an N-terminal His6-Tag were expressed in E. coli BL21(DE3) in Luria-Bertani Broth (LB) medium for approximately 16 h at 18 °C after induction with 0.15 mM IPTG. Cells were harvested at 3500 × g for 15 minutes and lysed by sonication in buffer containing 50 mM HEPES pH 7.5, 150 mM NaCl, 5 %v/v glycerol, 5 mM DTT, 0.1 %v/v Triton X -100 and ethylenediaminetetraacetic acid (EDTA)-free protease inhibitor cocktail (Sigma-Aldrich). The cleared lysate was purified by affinity chromatography on a Ni-NTA Superflow Cartridge (Qiagen) using an ÄKTA Start (Cytiva) in buffer containing 50 mM HEPES pH 7.5, 150 mM NaCl, 5 %v/v glycerol, 5 mM DTT. START domains were eluted by using elution buffer containing 50 mM HEPES pH 7.5, 150 mM NaCl, 5 %v/v glycerol, 5 mM DTT and 500 mM imidazole. Proteins were further purified by SEC on a HiLoad 16/600 Superdex 75 pg (Cytiva) in buffer containing 20 mM HEPES pH 7.5, 150 mM NaCl, 5 %v/v glycerol and 2 mM DTT.
The ORP domain of human OSBP(377-807) in the pGEX-6p-1 vector with an N-terminal PreScission-cleavable GST-tag was expressed in E. coli OverExpress C41 in LB medium for 16 h at 18 °C after induction with 0.1 mM IPTG. Cells were harvested at 3500 × g for 15 minutes and lysed by sonication in buffer containing 20 mM HEPES pH 7.5, 300 mM NaCl, 10 %v/v glycerol, 5 mM DTT, 0.1 %v/v Triton X-100 and EDTA-free protease inhibitor cocktail (Sigma-Aldrich). The cleared lysate was purified by affinity chromatography on a GSTrap HF column (Cytiva) using an ÄKTA Start (Cytiva) in buffer containing 20 mM HEPES pH 7.5, 300 mM NaCl, 10 %v/v glycerol, 5 mM DTT. OSBP(377 -807) was eluted by using elution buffer containing 20 mM HEPES pH 7.5, 300 mM NaCl, 10 %v/v glycerol, 5 mM DTT and 10 mM reduced glutathione. Proteins were further purified by SEC on a HiLoad 16/600 Superdex 75 pg (Cytiva) using an ÄKTA Explorer (Cytiva) in buffer containing 20 mM HEPES pH 7.5, 150 mM NaCl, 10 %v/v glycerol and 2 mM DTT.
The ORP domains of human ORP1(534-950) in pET24b(+) and ORP2(49-480) in the pET24b(+) vector including an N-terminal His6-Tag were expressed in E. coli BL21(DE3) in TB medium for approximately 16 h at 18 °C after induction with 0.1 mM IPTG. Cells were collected at 3500 × g for 15 minutes and lysed by sonification in buffer containing 10 mM Tris-HCl pH 8, 300 mM NaCl, 5 % glycerol, 2 mM DTT, 0.1 % Triton X-100 and EDTA-free protease inhibitor cocktail (Sigma-Aldrich). The cleared […]

STARD3 = target: T2, STARD3 (Homo sapiens, UniProt Q14849); assay: Differential scanning fluorimetry (DSF), STARD3; type: binding; details: single dose, Dose = 10 µM
T2 construct: STARD3(216-444); made in house; host or cells: E. coli BL21(DE3)
T2 sequence (Q14849 216-444): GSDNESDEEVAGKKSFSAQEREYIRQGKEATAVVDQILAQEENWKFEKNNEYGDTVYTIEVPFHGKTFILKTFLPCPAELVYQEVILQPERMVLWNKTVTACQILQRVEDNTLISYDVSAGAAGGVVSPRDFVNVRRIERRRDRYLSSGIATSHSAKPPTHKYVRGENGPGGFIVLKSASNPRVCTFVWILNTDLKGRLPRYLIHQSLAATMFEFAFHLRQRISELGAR

SMILES: C[C@]12CC[C@@H](O)C[C@H]1CCC[C@]21NC(=O)c2ccccc2N1 [Compound 5a]
- inhibition at 10 µM (OSBP): 9.1%
- OSBP (FP) inhibition (OSBP): 15.5%
- STARD3 (DSF) ΔTm (STARD3): 0.0244 °C
- ΔTm at 10 µM (STARD3): -0.16 °C

SMILES: CC12CCC3CC1CCC21C(=Nc2ccc(Cl)cc21)O3 (stereo not drawn) [Compound 15c]
- inhibition at 10 µM (OSBP): 3%
- ΔTm at 10 µM (STARD3): 0.0794 °C

SMILES: COc1ccc2c(c1)C(=O)CC[C@@H]1C[C@H](O)CC[C@]1(C)C(=O)N2 [Compound 11d]
- inhibition at 10 µM (OSBP): -5.3%
- ΔTm at 10 µM (STARD3): -0.119 °C

SMILES: C[C@]12CC[C@@H](O)C[C@H]1CCc1sc(-c3ccc(F)cc3)nc12 [Compound 8e]
- OSBP (FP) inhibition (OSBP): 1.3%
- STARD3 (DSF) ΔTm (STARD3): 0.0572 °C

SMILES: CCCCCN(c1ccc2c(c1)[C@@]13CC[C@@H]4C[C@@H](CC[C@@]41C)OC3=N2)c1ccc2c(c1)[C@@]13CC[C@@H]4C[C@@H](CC[C@@]41C)OC3=N2 [Compound 20b]
- OSBP (FP) inhibition (OSBP): 34.5%
- STARD3 (DSF) ΔTm (STARD3): -0.0839 °C

SMILES: C[C@]12CC[C@@H](O)C[C@H]1CCc1c2nc2ccccc2c1-c1ccc(F)cc1 [Compound 2d]
- inhibition at 10 µM (OSBP): 0%
- ΔTm at 10 µM (STARD3): 0.0456 °C

SMILES: C[C@]12CC[C@@H](O)C[C@H]1CCc1c2[nH]c2ccc(F)cc12 [Compound 10d]
- OSBP (FP) inhibition (OSBP): -7.0%
- STARD3 (DSF) ΔTm (STARD3): -0.115 °C

SMILES: C[C@]12CC[C@@H](O)C[C@H]1CCc1c2[nH]c2ccc(Cl)cc12 [Compound 10c]
- OSBP (FP) inhibition (OSBP): -10.0%
- STARD3 (DSF) ΔTm (STARD3): -0.121 °C
